According to ChEMBL document CHEMBL1201862, “PubChem BioAssay data set” (2004):
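Growth conditions: 96-well plates. Treatment: test compound, 48 hours, 5 concentrations. Analysis: linear interpolation between bracketing concentrations; unreached endpoints set to highest concentration. GI50 is the concentration that inhibits growth by half.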 Activity calls are given as the source filed them. Cut-off read from the data, not from the text of the source: active = GI50 up to about 1.1 µM and inactive = higher.

Key:
Experiment in all cases: inhibition of tumour cell growth, NCI panel, 48 h
CCRF-CEM = tested on: CCRF-CEM
OVCAR-3 = tested on: OVCAR-3
Hs-578T = tested on: Hs-578T
UO-31 = tested on: UO-31
MDA-N = tested on: MDA-N
SK-MEL-5 = tested on: SK-MEL-5
PC-3 = tested on: PC-3
A498 = tested on: A498
SK-OV-3 = tested on: SK-OV-3
SK-MEL-2 = tested on: SK-MEL-2
OVCAR-5 = tested on: OVCAR-5
IGROV-1 = tested on: IGROV-1
MDA-MB-231 = tested on: MDA-MB-231
U-251 = tested on: U-251
OVCAR-8 = tested on: OVCAR-8
SW-620 = tested on: SW-620
T47D = tested on: T47D
HOP-62 = tested on: HOP-62
SNB-75 = tested on: SNB-75
HL-60 = tested on: HL-60

Row | Structure (SMILES) | GI50 (CCRF-CEM) | GI50 (OVCAR-3) | GI50 (Hs-578T) | GI50 (UO-31) | GI50 (MDA-N) | GI50 (SK-MEL-5) | GI50 (PC-3) | GI50 (A498) | GI50 (SK-OV-3) | GI50 (SK-MEL-2) | GI50 (OVCAR-5) | GI50 (IGROV-1) | GI50 (MDA-MB-231) | GI50 (U-251) | GI50 (OVCAR-8) | GI50 (SW-620) | GI50 (T47D) | GI50 (HOP-62) | GI50 (SNB-75) | GI50 (HL-60)
1 | CCOC(=O)Nn1c(C)nnc1-c1ccccc1 | > 100 µM (inactive) | > 100 µM (inactive) | > 100 µM (inactive) | > 100 µM (inactive) | > 100 µM (inactive) | > 100 µM (inactive) | > 100 µM (inactive) | > 100 µM (inactive) | 61.7 µM (inactive) | > 100 µM (inactive) | > 100 µM (inactive) | > 100 µM (inactive) | > 100 µM (inactive) | > 100 µM (inactive) | > 100 µM (inactive) | > 100 µM (inactive) | > 100 µM (inactive) |  |  | 
2 | C[C@]12CC[C@H]3[C@@H](CCC4=CC(=O)CC[C@@H]43)[C@@H]1CC[C@@H]2OC1(O)C(=O)c2ccccc2C1=O | 31.4 µM (inactive) | 39.4 µM (inactive) | 11.2 µM (inactive) | 26.2 µM (inactive) | 17.6 µM (inactive) | 19.5 µM (inactive) | 60.5 µM (inactive) | 48.5 µM (inactive) | > 100 µM (inactive) | 75.9 µM (inactive) | 27.6 µM (inactive) | 69.7 µM (inactive) | 87.3 µM (inactive) | 48.8 µM (inactive) | 45.2 µM (inactive) | 40.6 µM (inactive) | 36.7 µM (inactive) | 36.6 µM (inactive) | 56.9 µM (inactive) | 
3 | Nc1ncnc2c1ncn2CCCCC(=O)O |  | > 100 µM (inactive) | > 100 µM (inactive) | > 100 µM (inactive) | > 100 µM (inactive) | > 100 µM (inactive) | > 100 µM (inactive) | > 100 µM (inactive) | > 100 µM (inactive) | > 100 µM (inactive) | > 100 µM (inactive) | > 100 µM (inactive) | > 100 µM (inactive) | > 100 µM (inactive) | > 100 µM (inactive) | > 100 µM (inactive) | > 100 µM (inactive) | > 100 µM (inactive) | > 100 µM (inactive) | 
4 | O=C(O[C@H](/C=C/c1ccccc1)P1(=O)N(Cc2ccccc2)[C@@H]2CCCC[C@H]2N1Cc1ccccc1)c1ccccc1 | 2.74 µM (inactive) | 3.68 µM (inactive) | 6.93 µM (inactive) | 4.5 µM (inactive) | 3.68 µM (inactive) | 1.86 µM (inactive) | 3.39 µM (inactive) | 5.57 µM (inactive) | 5.41 µM (inactive) | 2.27 µM (inactive) | 4.17 µM (inactive) | 3.37 µM (inactive) | 3.16 µM (inactive) | 3.26 µM (inactive) | 3.95 µM (inactive) | 3.57 µM (inactive) | 0.875 µM (active) | 5.38 µM (inactive) |  | 3.66 µM (inactive)
5 | Cc1nn(C(=O)c2ccc(Cl)cc2)c2c1C(c1ccc(O)cc1)SC(=N)N2 (centres undefined) | > 10 µM (inactive) | > 10 µM (inactive) | > 10 µM (inactive) |  | > 10 µM (inactive) | > 10 µM (inactive) | > 10 µM (inactive) |  | > 10 µM (inactive) | > 10 µM (inactive) | > 10 µM (inactive) | > 10 µM (inactive) | > 10 µM (inactive) | > 10 µM (inactive) | > 10 µM (inactive) | > 10 µM (inactive) | > 10 µM (inactive) | > 10 µM (inactive) | > 10 µM (inactive) | > 10 µM (inactive)
6 | N#Cc1nc(CCN2C(=O)c3ccccc3C2=O)oc1N | > 100 µM (inactive) | > 100 µM (inactive) | > 100 µM (inactive) | > 100 µM (inactive) | > 100 µM (inactive) | > 100 µM (inactive) | > 100 µM (inactive) |  | > 100 µM (inactive) | > 100 µM (inactive) | > 100 µM (inactive) | > 100 µM (inactive) | > 100 µM (inactive) | > 100 µM (inactive) | > 100 µM (inactive) | > 100 µM (inactive) | > 100 µM (inactive) | > 100 µM (inactive) | < 0.01 µM (active) | 
7 | O=C1/C(=C2\SCC(=O)N2c2ccccc2)SC(=S)N1c1ccccc1 | 37.2 µM (inactive) | 27.8 µM (inactive) | 34.5 µM (inactive) |  | 44.2 µM (inactive) | 46.7 µM (inactive) | 28.6 µM (inactive) | 40.4 µM (inactive) | 23.6 µM (inactive) | 27.3 µM (inactive) | > 100 µM (inactive) | 17.1 µM (inactive) | 20.6 µM (inactive) | 30.4 µM (inactive) | 41.4 µM (inactive) | 45.1 µM (inactive) | 51.2 µM (inactive) |  |  | 78.5 µM (inactive)
8 | Cc1ccc(/N=N/C(=N/NC(=O)c2cc(Cl)ccc2C(=O)c2ccccc2)c2ccc(N(CCC#N)CCC#N)cc2C)cc1 | 3.17 µM (inactive) | 3.01 µM (inactive) | 27.2 µM (inactive) | 22.4 µM (inactive) | 17 µM (inactive) | 14 µM (inactive) | 7.24 µM (inactive) |  | 8.09 µM (inactive) | 1.34 µM (inactive) | 21.3 µM (inactive) | 7.59 µM (inactive) | 4.06 µM (inactive) | 8.02 µM (inactive) | 11 µM (inactive) | 21.2 µM (inactive) | 3.81 µM (inactive) | 15.6 µM (inactive) | 18.2 µM (inactive) | 
